# Results from PubChem BioAssay (NCI).
#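 Abbreviation: GI50, concentration required for 50% inhibition of growth. TGI marks complete inhibition of growth.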
# What was measured:
# Experiment in all cases: NCI tumour cell line growth inhibition, 384-well format
# [1] = tested on: 786-0 renal
# [2] = tested on: A498 renal
# [3] = tested on: A549 NSCLC
# [4] = tested on: ACHN renal
# [5] = tested on: BT-549 breast
# [6] = tested on: CAKI-1 renal
# [7] = tested on: CCRF-CEM leukemia
# [8] = tested on: COLO 205 colon
# [9] = tested on: DU-145 prostate
# [10] = tested on: EKVX NSCLC
# [11] = tested on: HCC-2998 colon
# [12] = tested on: HCT-116 colon
# [13] = tested on: HCT-15 colon
# [14] = tested on: HL-60(TB) leukemia
# [15] = tested on: HOP-62 NSCLC
# [16] = tested on: HOP-92 NSCLC
# [17] = tested on: HS 578T breast
# [18] = tested on: HT29 colon
# [19] = tested on: IGROV1 ovarian
# [20] = tested on: K-562 leukemia
# [21] = tested on: KM12 colon
# [22] = tested on: LOX IMVI melanoma
# [23] = tested on: M14 melanoma
# [24] = tested on: MALME-3M melanoma
# [25] = tested on: MCF7 breast
# [26] = tested on: MDA-MB-231 breast
# [27] = tested on: MDA-MB-435 melanoma
# [28] = tested on: MDA-MB-468 breast
# [29] = tested on: MOLT-4 leukemia
# [30] = tested on: NCI-H226 lung
# [31] = tested on: NCI-H23 lung
# [32] = tested on: NCI-H322M lung
# [33] = tested on: NCI-H460 NSCLC
# [34] = tested on: NCI-H522 lung
# [35] = tested on: NCI/ADR-RES ovarian
# [36] = tested on: OVCAR-3 ovarian
# [37] = tested on: OVCAR-4 ovarian
# [38] = tested on: OVCAR-5 ovarian
# [39] = tested on: OVCAR-8 ovarian
# [40] = tested on: PC-3 prostate
# [41] = tested on: RPMI-8226 leukemia
# [42] = tested on: RXF 393 renal
# [43] = tested on: SF-268 CNS
# [44] = tested on: SF-295 CNS
# [45] = tested on: SF-539 CNS
# [46] = tested on: SK-MEL-28 melanoma
# [47] = tested on: SK-MEL-5 melanoma
# [48] = tested on: SK-OV-3 ovarian
# [49] = tested on: SN12C renal
# [50] = tested on: SNB-19 CNS
# [51] = tested on: SNB-75 CNS
# [52] = tested on: SW-620 colon
# [53] = tested on: T-47D breast
# [54] = tested on: TK-10 renal
# [55] = tested on: U251 glioblastoma
# [56] = tested on: UACC-257 melanoma
# [57] = tested on: UACC-62 melanoma
# [58] = tested on: UO-31 renal
# [59] = tested on: SK-MEL-2 melanoma
# [60] = tested on: SR leukemia
structure (smiles),measurement,setting,value
Cc1cnc(CNC(=O)c2c(=O)c3ccc(N4CCCN(C)CC4)nc3n3c2sc2ccccc23)cn1,GI50,[1],0.359 µM
same,TGI,[1],12.8 µM
same,GI50,[2],0.112 µM
same,TGI,[2],1.55 µM
same,GI50,[3],0.0369 µM
same,TGI,[3],1.34 µM
same,GI50,[4],0.0643 µM
same,TGI,[4],> 100 µM
same,GI50,[5],1.38 µM
same,TGI,[5],> 100 µM
same,GI50,[6],0.607 µM
same,TGI,[6],> 100 µM
same,GI50,[7],0.0242 µM
same,TGI,[7],0.111 µM
same,GI50,[8],0.244 µM
same,TGI,[8],> 100 µM
same,GI50,[9],0.49 µM
same,TGI,[9],33.5 µM
same,GI50,[10],34 µM
same,TGI,[10],> 100 µM
same,GI50,[11],1.66 µM
same,TGI,[11],19.2 µM
same,GI50,[12],0.112 µM
same,TGI,[12],1.45 µM
same,GI50,[13],0.0877 µM
same,TGI,[13],2.76 µM
same,GI50,[14],0.0586 µM
same,TGI,[14],2.26 µM
same,GI50,[15],0.122 µM
same,TGI,[15],> 100 µM
same,GI50,[16],0.353 µM
same,TGI,[16],> 100 µM
same,GI50,[17],0.0697 µM
same,TGI,[17],> 100 µM
same,GI50,[18],0.33 µM
same,TGI,[18],> 100 µM
same,GI50,[19],0.323 µM
same,TGI,[19],> 100 µM
same,GI50,[20],0.231 µM
same,TGI,[20],16.3 µM
same,GI50,[21],1.03 µM
same,TGI,[21],2.45 µM
same,GI50,[22],0.138 µM
same,TGI,[22],1.41 µM
same,GI50,[23],0.781 µM
same,TGI,[23],> 100 µM
same,GI50,[24],0.806 µM
same,TGI,[24],> 100 µM
same,GI50,[25],0.416 µM
same,TGI,[25],1.75 µM
same,GI50,[26],0.397 µM
same,TGI,[26],> 100 µM
same,GI50,[27],2.9 µM
same,TGI,[27],> 100 µM
same,GI50,[28],12.4 µM
same,TGI,[28],> 100 µM
same,TGI,[29],0.0175 µM
same,GI50,[30],0.741 µM
same,TGI,[30],> 100 µM
same,GI50,[31],0.714 µM
same,TGI,[31],> 100 µM
same,GI50,[32],0.877 µM
same,TGI,[32],> 100 µM
same,GI50,[33],0.0228 µM
same,TGI,[33],1.12 µM
same,GI50,[34],19.9 µM
same,TGI,[34],> 100 µM
same,GI50,[35],> 100 µM
same,TGI,[35],> 100 µM
same,GI50,[36],0.462 µM
same,TGI,[36],48.5 µM
same,GI50,[37],0.383 µM
same,TGI,[37],5.56 µM
same,GI50,[38],27.7 µM
same,TGI,[38],> 100 µM
same,GI50,[39],0.234 µM
same,TGI,[39],> 100 µM
same,GI50,[40],1.6 µM
same,TGI,[40],22.3 µM
same,GI50,[41],0.0583 µM
same,TGI,[41],1.62 µM
same,GI50,[42],0.0806 µM
same,TGI,[42],> 100 µM
same,GI50,[43],0.0241 µM
same,TGI,[43],0.088 µM
same,GI50,[44],0.608 µM
same,TGI,[44],> 100 µM
same,GI50,[45],0.259 µM
same,TGI,[45],> 100 µM
same,GI50,[46],27 µM
same,TGI,[46],> 100 µM
same,GI50,[47],0.172 µM
same,TGI,[47],48 µM
same,GI50,[48],1.35 µM
same,TGI,[48],> 100 µM
same,GI50,[49],0.307 µM
same,TGI,[49],> 100 µM
same,GI50,[50],0.322 µM
same,TGI,[50],> 100 µM
same,GI50,[51],0.832 µM
same,TGI,[51],> 100 µM
same,GI50,[52],0.0991 µM
same,TGI,[52],> 100 µM
same,GI50,[53],21.5 µM
same,TGI,[53],> 100 µM
same,GI50,[54],9.17 µM
same,TGI,[54],> 100 µM
same,GI50,[55],0.517 µM
same,TGI,[55],> 100 µM
same,GI50,[56],7.63 µM
same,TGI,[56],> 100 µM
same,GI50,[57],0.175 µM
same,TGI,[57],> 100 µM
same,GI50,[58],1.54 µM
same,TGI,[58],> 100 µM
NC(=O)Nc1cc(-c2cccc(F)c2)sc1C(=O)N[C@H]1CCCNC1,GI50,[1],0.179 µM
same,TGI,[1],1.05 µM
same,GI50,[2],0.0323 µM
same,TGI,[2],0.144 µM
same,GI50,[3],0.315 µM
same,TGI,[3],1.57 µM
same,GI50,[4],0.0497 µM
same,TGI,[4],0.295 µM
same,GI50,[5],0.0166 µM
same,TGI,[5],0.105 µM
same,GI50,[6],0.294 µM
same,TGI,[6],1.5 µM
same,GI50,[7],0.0404 µM
same,TGI,[7],0.192 µM
same,GI50,[8],0.261 µM
same,TGI,[8],1.08 µM
same,GI50,[9],0.29 µM
same,TGI,[9],1.34 µM
same,GI50,[10],0.389 µM
same,TGI,[10],2.15 µM
same,GI50,[11],0.0106 µM
same,TGI,[11],0.149 µM
same,GI50,[12],1 µM
same,TGI,[12],2.67 µM
same,GI50,[13],1.28 µM
same,TGI,[13],2.89 µM
same,GI50,[14],0.12 µM
same,TGI,[14],0.245 µM
same,GI50,[15],0.146 µM
same,TGI,[15],0.565 µM
same,GI50,[16],0.0381 µM
same,TGI,[16],0.407 µM
same,GI50,[17],0.0132 µM
same,TGI,[17],0.284 µM
same,GI50,[18],0.221 µM
same,TGI,[18],0.7 µM
same,GI50,[19],0.0796 µM
same,TGI,[19],0.887 µM
same,GI50,[20],0.103 µM
same,TGI,[20],0.237 µM
same,GI50,[21],0.022 µM
same,TGI,[21],0.228 µM
same,GI50,[22],0.359 µM
same,TGI,[22],1.24 µM
same,GI50,[23],0.0451 µM
same,TGI,[23],0.224 µM
same,GI50,[24],0.185 µM
same,TGI,[24],1.74 µM
same,GI50,[25],0.0533 µM
same,TGI,[25],12.2 µM
same,GI50,[26],0.3 µM
same,TGI,[26],1.57 µM
same,GI50,[27],0.143 µM
same,TGI,[27],0.302 µM
same,GI50,[28],0.202 µM
same,TGI,[28],0.698 µM
same,GI50,[29],0.0406 µM
same,TGI,[29],0.189 µM
same,GI50,[30],0.508 µM
same,TGI,[30],2.3 µM
same,GI50,[31],0.0665 µM
same,TGI,[31],0.267 µM
same,GI50,[32],0.161 µM
same,TGI,[32],0.967 µM
same,GI50,[33],0.284 µM
same,TGI,[33],2.06 µM
same,GI50,[34],0.128 µM
same,TGI,[34],0.589 µM
same,GI50,[35],9.19 µM
same,TGI,[35],23 µM
same,GI50,[36],0.103 µM
same,TGI,[36],0.539 µM
same,GI50,[37],0.0696 µM
same,TGI,[37],0.348 µM
same,GI50,[38],0.289 µM
same,TGI,[38],1.62 µM
same,GI50,[40],0.259 µM
same,TGI,[40],3.96 µM
same,GI50,[41],0.0349 µM
same,TGI,[41],0.186 µM
same,GI50,[42],0.0121 µM
same,TGI,[42],0.0432 µM
same,GI50,[43],0.132 µM
same,TGI,[43],0.91 µM
same,GI50,[44],0.142 µM
same,TGI,[44],0.461 µM
same,GI50,[45],0.0228 µM
same,TGI,[45],0.104 µM
same,GI50,[59],0.108 µM
same,TGI,[59],0.284 µM
same,GI50,[46],1.5 µM
same,TGI,[46],8.6 µM
same,GI50,[47],0.127 µM
same,TGI,[47],0.408 µM
same,GI50,[48],0.136 µM
same,TGI,[48],0.38 µM
same,GI50,[49],0.13 µM
same,TGI,[49],0.968 µM
same,GI50,[50],0.377 µM
same,TGI,[50],2.29 µM
same,GI50,[51],0.188 µM
same,TGI,[51],1.26 µM
same,GI50,[60],0.0365 µM
same,TGI,[60],0.154 µM
same,GI50,[52],0.595 µM
same,TGI,[52],2.12 µM
same,GI50,[53],12.7 µM
same,TGI,[53],25.4 µM
same,GI50,[54],0.109 µM
same,TGI,[54],0.357 µM
same,GI50,[55],0.385 µM
same,TGI,[55],2.88 µM
same,GI50,[56],1.97 µM
same,TGI,[56],11.1 µM
same,GI50,[57],0.319 µM
same,TGI,[57],3.33 µM
same,GI50,[58],0.362 µM
same,TGI,[58],1.51 µM
